Measurements as given in patent publication US20040142929A1, “Derivatives of aryl (or heteroaryl) azolylcarbinoles for the treatment of urinary incontinence” (priority 2001, published 2004).

Assays:
[1] = test system: Urinary incontinence secondary to overactive bladder (detrusor hyperreflexia or instability) or idiopathic urge incontinence; assay: Clinical Study A: placebo controlled clinical trial, 84 days; type: in vivo, human
Method: (§1) In a placebo controlled clinical trial 79 patients were randomised. Patients from both genders aged between 18 and 80 years (both inclusive) were included. They had Urinary incontinence secondary to overactive bladder (detrusor hyperreflexia or instability) or idiopathic urge incontinence confirmed by the medical history and urodynamic study.
The patients were treated within one group with (±)-5-{α-[2-(dimethylamino)ethoxy]benzyl}-1-methyl-1H-pirazole citrate, 400 mg, twice a day, tablets for oral administration, or within another group with placebo in matching tablets, twice a day, for administration by oral route. The patients were treated for 84 days.
Efficacy was measured by the difference from baseline in the mean number of leakages, micturitions, urgencies and voidings/24 hours as provided by a 7-day frequency-volume chart in the end of study visit
The primary efficacy analysis was based on the PP population. The treatment groups were compared with respect to the treatment effect, defined as the difference between treatment groups for changes from baseline in the number of voidings per 24 hours.
(§2) As an addition the percentage of responders was compared based on an analysis of the number of patients having <8 voidings/day or experienced complete dryness or both. The statistical significance was determined.

[2] = test system: Urinary incontinence secondary to overactive bladder (detrusor hyperreflexia or instability) or idiopathic urge incontinence; assay: Clinical Study B: placebo controlled clinical trial, 84 days; type: in vivo, human
Method: as §1, with “135” for “79”
The patients were treated within one group with […]{α-[2-(dimethylamino)ethoxy]benzyl}-1-methyl-1H-pirazole citrate, 230 mg b.i.d, capsules (meaning 400 mg (±)-5-{α-[2-(dimethylamino)ethoxy]benzyl}-1-methyl-1H-pirazole citrate/capsule) for oral administration (twice daily) or within another group with placebo, matching capsules, […], for administration by oral route. The patients were treated for 84 days.
Efficacy was measured by the difference from baseline in the mean number of voidings/24 hours as provided by a 7-day frequency-volume chart in the end of study visit.
The primary efficacy analysis was based on the PP population. […]
as §2

[3] = patients, 400 mg citrate twice a day, oral tablets, 84 days, difference from baseline, 7-day frequency-volume chart

Structure (SMILES)	improving urge incontinence caused by overactive bladder: efficacy variables compared to placebo ([1]; citrate 400 mg twice a day (equivalent to 230 mg base twice a day), oral route)	mean number of daily leakages compared with placebo [1, 3]	mean number of daily micturitions compared with placebo [1, 3]	mean number of daily urgencies compared with placebo [1, 3]	mean number of daily voidings compared with placebo [1, 3]	percentage of responders (patients having <8 voidings/day or complete dryness or both) versus placebo ([1]; patients, 400 mg citrate twice a day, oral, 84 days, FIG. 1)	percentage of responders (patients having <8 voidings/day or complete dryness or both) versus placebo ([2]; 230 mg b.i.d., oral, FIG. 2)	reduction of the mean number of voidings per 24 hours (change from baseline) ([2]; patients, 230 mg b.i.d. (400 mg citrate/capsule), oral capsules, PP population)
CN(C)CCOC(c1ccccc1)c1ccnn1C.O=C(O)CC(O)(CC(=O)O)C(=O)O (racemic) [(±)-5-{α-[2-(dimethylamino)ethoxy]benzyl}-1-methyl-1H-pirazole citrate]	statistical and clinically significant improvements compared to placebo in the majority of efficacy variables considered	significant reduction	significant reduction	significant reduction	significant reduction	–	–	–
CN(C)CCOC(c1ccccc1)c1ccnn1C.O=C(O)CC(O)(CC(=O)O)C(=O)O (racemic) [(±)-5-{α-[2-(dimethylamino)ethoxy]benzyl}-1-methyl-1H-pirazole]	–	–	–	–	–	superior to placebo	superior to placebo	5.83 units
